Measurements taken from patent US12661358B2, “Purine derivatives as drugs for the treatment of neonatal hypoxia-ischemia brain injury and related diseases” (COMMISSARIAT A L'ENERGIE ATOMIQUE ET AUX ENERGIES …, priority 2020, dated 2026).

What was measured:
[1] = test system: HI (Hypoxia-Ischemia) injury; experiment: Rice-Vannucci neonatal HI model, infarct measurement; format: in vivo, Wistar rats; settings: P7 rats, 30 mg/kg IP immediately after hypoxia, 24 h and 48 h; read 72 h after HI (P10); compared to HI+PL; males and females
Text: Subjects were Wistar rats born from time-mated dams obtain from Charles River Laboratory (Wilmington, […], USA).
Post-natal day 7 (P7) (CNS maturation corresponding to 32-34 weeks of gestation in human) rats were assigned to 3 groups: sham, HI+PL or HI+Compound 13.
In the sham group no hypoxia-ischemia was induced in the rats. This group served as a control group.
In the HI+PL group, where PL stands for placebo, hypoxia-ischemia was induced in the rats. The rats were then further administered a saline vehicle, which served as the placebo.
In the HI+Compound 13 group, hypoxia-ischemia was induced in the rats. The rats were then further administered a dose of Compound 13, which is a compound of formula (I) according to the invention.
The Rice-Vanucci method was used to induce the HI injury (Rice J E et al., 1981) in groups HI+PL and HI+Compound 13.
In summary, each animal from all three groups was anesthetized using 3-4% isoflurane and total absence of leg withdrawal reflexes was verified prior to proceeding to surgery. […]
The infarct was calculated as a percentage of the ratio of the damaged volume to the volume of the total contralateral hemisphere with correction for hemispheric edema, according to the following formula: infarct (%)=[1−(volume of total ipsilateral hemisphere−volume of infarct)/volume of total contralateral hemisphere)]×100%.

[2] = test system: primary rat cell-based BBB (blood-brain barrier) model; experiment: Permeability of 14C-sucrose on primary rat cell-based BBB model after LPS challenge; settings: LPS 10 ng/mL; compound at 0.1 μM and 1 μM; figure axis in 10^−6 cm·s^−1
Experimental: FIG. 2A: The permeability of radiolabelled sucrose, a permeability marker, was studied on a primary rat cell-based BBB (blood-brain barrier) model after lipopolysaccharide (LPS) challenge.
First graph (left): y-axis: permeability of ^14C-sucrose through the BBB (10^−6 cm·s^−1); x-axis (from left to right): BBB control (negative control); BBB+LPS (10 ng/mL) (positive control); BBB+Compound 13 (0.1 μM); BBB+LPS+Compound 13 (0.1 μM); BBB+Compound 13 (1 μM); BBB+LPS+Compound 13 (1 μM).
Second graph (right): y-axis: permeability of ^14C-sucrose through the BBB (10^−6 cm·s^−1); x-axis (from left to right): BBB control (negative control); BBB+LPS (10 ng/mL) (positive control); BBB+Aftin-5 (0.1 μM); BBB+LPS+Aftin-5 (0.1 μM); BBB+Aftin-5 (1 μM); BBB+LPS+Aftin-5 (1 μM).
The permeability of radiolabelled sucrose (^14C-sucrose), a permeability marker, was studied on a primary rat cell-based BBB (blood-brain barrier) model. Permeability was measured in 10^−6 cm·s^−1. ^14C-sucrose is a small molecular weight marker of 342 Da that tends to reflect paracellular disruption.
To induce increased BBB permeability, lipopolysaccharide (LPS) was injected. LPS induces increased BBB permeability by stimulating formation and release of cytokines and other molecules.
Two different Aftin compounds were tested in this example: […]. […]

[3] = as demonstrated in WO2018/189122; cited from earlier work

For `CC[C@H](CO)Nc1nc(N(CC)Cc2ccccc2)c2ncn(C(C)C)c2n1` [Compound 13, (2R)-2-[[6-[benzyl(ethyl)amino]-9-isopropyl-purin-2-yl]amino]butan-1-ol], the “infarct area / infarct volume of the hemisphere ipsilateral to HI injury” value [1] was “statistically reduced” and the “permeability of 14C-sucrose through the BBB under inflammatory stress” value [2] was “statistically restored the permeability properties of the BBB”.
In the case of `CC[C@H](CO)Nc1nc(N(C)c2ccccc2)c2ncn(C(C)C)c2n1` [Aftin-5, (2R)-2-[[9-isopropyl-6-(N-methylanilino)purin-2-yl]amino]butan-1-ol], the “permeability of 14C-sucrose through the BBB under inflammatory stress” value [2] is given as “statistically restored the permeability properties of the BBB” and the “ability to cross the BBB” value [3] is given as “able to cross the BBB”.
